Source: EP4732839A1, “USE OF COMPOUND IN TREATMENT OF LIVER DISEASES” (priority 2023, dated 2025)
Converted amounts (≈) assume the structure as drawn. “And” between values parts separate entries of the source, which are not always exact repeats. Equal entries are not always repeated.

Assays:
H22-luc = H22-luc orthotopic model, 3 mpk, IG, QW × 3, BLI 21 days post-dose, P < 0.0001
Procedure: The cells were placed in an incubator at 37 °C with 5% CO2 and passaged every 1 to 2 days depending on the cell density.
The cell concentration (H22-luc, 2.0E8/mL) was adjusted, and the cells were mixed well with Matrigel at a ratio of 1:1. The mixture was placed on ice for subsequent injection experiments, and was mixed thoroughly by shaking with Vortex before use.
• (1) The mice were weighed before surgery and anesthetized by intraperitoneal injection of avertin at 0.15 mL/10 g body weight. […] The needle was inserted into the liver at a 30-degree angle relative to the liver surface. After the needle was inserted, the needle was made parallel to the tabletop and advanced in parallel for about 3 mm. 10 µL of H22-luc cell suspension was slowly injected, and a rapid whitening (white plaque) or turbid translucent vacuolation over most of the liver lobe in the injection area was observed. • (5) After injection, a cotton swab was used to apply slight pressure at the needle insertion site while the needle was slowly withdrawn. The cotton swab was removed until no bleeding was observed. • (6) The liver lobe was gently pushed back into the abdominal cavity, and the muscle layer and skin were sutured.
The experimental data were analyzed using Graphpad Prism 8. The experimental data were expressed as mean ± SD.

[1] = Solubility in phosphate buffer at pH 7.4
[2] = Liver microsome metabolic stability (murine); settings: Murine liver microsomes, 1 µM compound, 1 mg/mL, NADPH, 37 °C
Procedure: The metabolic stability of the compounds in in vitro liver microsomes was evaluated. The procedures and steps were as follows: At 37 °C, 1 µM of the compounds was incubated in 1 mg/mL liver microsomes. The reaction system was a 0.1 M potassium phosphate buffer (pH 7.4) containing 3 mmol/L MgCl2 and 1 mmol/L NADPH. At the beginning of the reaction, the small molecules and the liver microsomes were pre-incubated at 37 °C for 10 min, and subsequently a cofactor NADPH was added to initiate the metabolic reaction. The reaction was quenched at 0 min, 5 min, 10 min, 20 min, 30 min, and 60 min using three volumes of ice-cold methanol containing an internal standard (200 nM labetalol). After incubation at room temperature for 10 min, the samples were centrifuged at 4000 rpm at 4 °C for 20 min, and the supernatants were collected, diluted with chromatography-grade purified water in a 1:1 ratio, and then subjected to quantitative analysis. […] After a 6-minute chromatographic separation on a C18 column (50 × 2.1 mm; 2.6 µm) under a gradient mobile phase of 0.1% formic acid in water, the peaks corresponding to specified ionic signals were detected. […]
(§4) The metabolic half-life (T1/2) and the metabolic clearance rate (CLint(mic)) (µL/min/mg) were calculated using a first-order kinetic equation.

[3] = test system: ISG15, ISG56, Mx1, and Oaslb; assay: Liver safety: qPCR of interferon-related genes in liver tissue; assay type: in vivo, C57BL/6J wild-type female mice
Procedure: (§1) C57BL/6J wild-type female mice (6 weeks old) were randomly grouped. After administration at different doses, whole blood and liver tissues of the mice were separately collected at 1 h, 2 h, and 4 h for detection of a plurality of parameters to evaluate the effect of the drugs on the liver.
(§2) Liver tissues and blood were collected at 1 h, 2 h, and 4 h after single dosing.
(§3) The supernatant was collected and stored (-20 °C); • (3) IFN-α, IP-10, IL-6, and TNF-α were detected using an ELISA kit. • (C) Remaining liver tissue-HE staining and pathological evaluation. • (D) 1/2 blood (whole blood)-liver function parameter detection: AST (aspartate aminotransferase), ALT (alanine aminotransferase/glutamate pyruvate transaminase), ALP (alkaline phosphatase), ALB (albumin), and GGT (γ-glutamyl transferase). • (E) 1/2 blood-serum preparation-reserve for ELISA.

[4] = Liver tissue distribution after single intragastric administration; settings: 10 mg/kg single intragastric, ICR mice; for AUC(0-t) at 24 h: mouse, in vivo, po, 10 mg/kg, area under curve at 24 h post-dose
Procedure: The specific regimen was as follows: Before administration, the state of the formulation for administration was inspected, and the homogeneity of the formulation was ensured by vortexing, stirring, or shaking. The theoretical dose for each mouse was calculated according to the following formula. The actual dose for each ICR mouse and the collection time for plasma and tissue samples were required to be recorded in detail in corresponding tables. Theoretical administration volume (mL) = ((Dose(mg⋅kg^−1))/(Concentration of test solution (mg⋅((mL))^−1))) × Animal body weight (kg) [formula]
Plasma sample collection: At each designated time point, about 100 µL of blood was collected from the orbit, and the collected whole blood was placed in an EDTA-K2 anticoagulation tube, inverted several times to mix thoroughly, stored on wet ice, and centrifuged (at 1500 g to 1600 g) for 10 min within 30 min to separate the plasma. The resulting plasma sample was stored at -40 °C to -20 °C for biological sample analysis.
The specific procedures for liver tissue collection were as follows: Liver tissues were collected immediately after whole blood collection. The liver tissues were collected, washed with ice-cold normal saline, dehydrated, weighed, and homogenized in 20% methanol-water at a ratio of 1:5 (w/v). The collection time of tissues and the weight of homogenized tissues were required to be recorded in detail in corresponding tables.
The plasma and various tissue homogenates were stored in a refrigerator at -40 °C to -20 °C for sample analysis. After the experiment was completed, the mice were euthanized by carbon dioxide asphyxiation or cervical dislocation. After the analysis was completed, the samples were returned to the biological sample room, and transferred to an environment at -40 °C to -20 °C for storage according to SOP-SM-001.
The corresponding pharmacokinetic parameters of plasma and liver tissues were calculated using a non-compartmental model in Phoenix WinNonlin 8.0 or later versions, and the area under curve AUC0-t (AUC0-t, the area under the concentration-time curve at 24 h post-dose) was calculated. The liver/plasma drug distribution ratio (RL/P) was then calculated.

[5] = assay type: in vivo, C57BL/6J wild-type female mice
Procedure: as §1, §2, §3

[6] = test system: Peripheral blood mononuclear cells (hPBMCs); assay: Cytokine secretion after stimulation of PBMCs; settings: hPBMCs from 3 donors, 24 h of stimulation
in vitro = settings: human, microsomes, pH 7.4
Procedure: The metabolic stability of the compounds in in vitro liver microsomes was evaluated. The procedures and steps were as follows: At 37 °C, 1 µM of the compounds was incubated in 1 mg/mL liver microsomes. The reaction system was a 0.1 M potassium phosphate buffer (pH 7.4) containing 3 mmol/L MgCl2 and 1 mmol/L NADPH. At the beginning of the reaction, the small molecules and the liver microsomes were pre-incubated at 37 °C for 10 min, and subsequently a cofactor NADPH was added to initiate the metabolic reaction. The reaction was quenched at 0 min, 5 min, 10 min, 20 min, 30 min, and 60 min using three volumes of ice-cold methanol containing an internal standard (200 nM labetalol). After incubation at room temperature for 10 min, the samples were centrifuged at 4000 rpm at 4 °C for 20 min, and the supernatants were collected, diluted with chromatography-grade purified water in a 1:1 ratio, and then subjected to quantitative analysis. […] After a 6-minute chromatographic separation on a C18 column (50 × 2.1 mm; 2.6 µm) under a gradient mobile phase of 0.1% formic acid in water, the peaks corresponding to specified ionic signals were detected. […] The detailed operation process was as follows: • 1) The compound working solution was added to all 96-well reaction plates (T0, T5, T10, T20, T30, and T60) at 10 µL/well, except the blank wells. • 2) The microsomal solution was added to all the reaction wells (T0, T5, T10, T20, T30, T60, and blank wells) at 80 µL/well. • 3) The plates were pre-incubated at 37 °C for 10 min. • 4) After pre-incubation, NADPH was added to each reaction plate at 10 µL/well to initiate the reaction. • 5) At the set end time point, a 4 °C methanol solution (containing an internal standard: 200 nM labetalol) was added to each reaction plate at 300 µL/well to quench the reaction. • 6) Each plate was sealed and shaken for 10 min. • 7) The mixture was shaken well and centrifuged at 4000 rpm at 4 °C for 20 min. • 8) 300 µL of the supernatant was collected, and HPLC-grade water was added at 300 µL/well. The mixture was well mixed and then subjected to LC-MS analysis.
as §4

physchem = settings: phosphate buffer, pH 7.4, aqueous buffer
hERG potassium channel = hERG potassium channel (Homo sapiens, UniProt Q12809); assay: hERG whole-cell patch-clamp; assay type: cell-based; settings: whole-cell patch-clamp; read-out: hERG (IC50)
Sequence of hERG potassium channel (Q12809 whole entry): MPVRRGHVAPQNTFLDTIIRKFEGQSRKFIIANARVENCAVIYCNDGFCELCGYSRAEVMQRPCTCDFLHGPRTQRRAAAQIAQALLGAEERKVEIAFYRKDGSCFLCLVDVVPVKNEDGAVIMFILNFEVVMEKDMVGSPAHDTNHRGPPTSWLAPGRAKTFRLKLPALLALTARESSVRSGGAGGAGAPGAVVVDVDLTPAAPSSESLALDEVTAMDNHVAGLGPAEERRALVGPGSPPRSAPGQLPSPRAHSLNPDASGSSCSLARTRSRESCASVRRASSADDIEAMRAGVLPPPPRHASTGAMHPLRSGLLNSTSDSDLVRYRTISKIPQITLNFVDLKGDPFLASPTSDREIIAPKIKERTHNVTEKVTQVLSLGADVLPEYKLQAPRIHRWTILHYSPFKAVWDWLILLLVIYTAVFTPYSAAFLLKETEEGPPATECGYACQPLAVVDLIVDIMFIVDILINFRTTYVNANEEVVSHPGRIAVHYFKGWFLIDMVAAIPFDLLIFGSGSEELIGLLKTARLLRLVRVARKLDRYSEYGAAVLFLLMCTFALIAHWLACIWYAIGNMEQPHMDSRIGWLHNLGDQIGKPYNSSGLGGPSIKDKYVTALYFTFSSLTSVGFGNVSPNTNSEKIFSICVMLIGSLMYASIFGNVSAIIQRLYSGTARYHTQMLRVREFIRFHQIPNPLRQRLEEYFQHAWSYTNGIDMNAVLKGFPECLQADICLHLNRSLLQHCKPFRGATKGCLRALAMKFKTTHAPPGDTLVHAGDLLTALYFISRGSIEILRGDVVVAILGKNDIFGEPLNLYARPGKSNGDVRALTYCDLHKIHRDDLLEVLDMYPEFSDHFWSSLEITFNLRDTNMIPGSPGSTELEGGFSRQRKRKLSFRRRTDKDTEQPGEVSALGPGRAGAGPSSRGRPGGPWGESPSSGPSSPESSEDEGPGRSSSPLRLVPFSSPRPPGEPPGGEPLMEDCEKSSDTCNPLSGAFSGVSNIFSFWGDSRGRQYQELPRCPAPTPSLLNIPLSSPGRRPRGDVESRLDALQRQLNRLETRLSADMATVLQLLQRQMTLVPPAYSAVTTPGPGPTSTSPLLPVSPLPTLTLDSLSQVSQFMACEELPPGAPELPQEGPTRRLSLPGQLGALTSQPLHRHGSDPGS
Source text: The rapidly activated potassium channel encoded by human ether-a-go-go-related gene (hERG) is an important ion channel involved in the formation of cardiac action potential phase 3 repolarization. Drug-induced blockade of hERG channels can lead to delayed cardiac repolarization, manifested as QT interval prolongation on the electrocardiogram, known as long QT syndrome. Drug-induced delayed ventricular repolarization may, under certain circumstances, trigger fatal arrhythmias-torsade de pointes-type ventricular tachycardia. In this study, the whole-cell patch-clamp technique (the standard method for hERG safety assessment) was employed to evaluate the inhibitory effects of the small-molecule compounds on the hERG potassium channel and to assess the risk of ventricular repolarization toxicity.

Q: For `COCCNc1nc(N)nc2ccc(Cc3ccc(CN4CCOCC4)cc3)nc12` [Compound II], which “maximum body weight loss rate” value (MC38-luc; MC38-luc liver metastasis model, compound II 3 mpk IG QW × 3, PD-1 10 mpk IP BIW × 2) is on record?
A: 3.9%

Q: And the TGI (MC38-luc; MC38-luc liver metastasis model, compound II 3 mpk IG QW × 3, PD-1 10 mpk IP BIW × 2, 17 days post-dose)?
A: 63.3%

Q: And the “CD8+ T cells in peripheral lymph nodes” value (MC38-luc; flow cytometry, compared with vehicle group)?
A: no significant difference

Q: What about the “Kuffer cells in the liver tissue” value (MC38-luc; flow cytometry, compared with vehicle group and PD-1 antibody group) of the same compound?
A: significantly induced an increase

Q: What about the TGI (H22-luc) of the same compound?
A: 83.4%

Q: What about the “solubility improvement compared with N01(D18)” value [1] of the same compound?
A: about 10 fold

Q: And the k [2]?
A: 0.0460 L/min

Q: And the “relative expression levels of ISG15, ISG56, Mx1, and oas1b” value ([3]; 3/10/20 mpk i.g. single dose, 1 h to 4 h)?
A: increased over time, and peaked at 4 h

Q: What about the “mRNA expression level of interferon-related genes” value ([3]; dose of 3 mpk (pharmacodynamic dose)) of the same compound?
A: significantly induced an increase

Q: And the “AUC0-t ratio (liver/plasma)” value [4]?
A: 114

Q: And the “liver/plasma drug distribution ratio” value [4]?
A: 114 fold

Q: And the “Drug concentration ratio (liver/plasma)” value ([4]; 0.25h)?
A: 610

Q: What about the “Mean drug concentration (liver)” value ([4]; 0.25h) of the same compound?
A: 30980 ng/g

Q: And the “Mean drug concentration (plasma)” value ([4]; 0.25h)?
A: 50.8 ng/mL

Q: What about the “Drug concentration ratio (liver/plasma)” value ([4]; 1 h) of the same compound?
A: 134

Q: What about the “Mean drug concentration (liver)” value ([4]; 1 h) of the same compound?
A: 8780 ng/g

Q: And the “Mean drug concentration (plasma)” value ([4]; 1 h)?
A: 65.6 ng/mL

Q: What about the “Drug concentration ratio (liver/plasma)” value ([4]; 4h) of the same compound?
A: 71.3

Q: What about the “Mean drug concentration (liver)” value ([4]; 4h) of the same compound?
A: 1990 ng/g

Q: What about the “Mean drug concentration (plasma)” value ([4]; 4h) of the same compound?
A: 27.9 ng/mL

Q: What about the “Drug concentration ratio (liver/plasma)” value ([4]; 24h) of the same compound?
A: 79.4

Q: What about the “Mean drug concentration (liver)” value ([4]; 24h) of the same compound?
A: 327 ng/g

Q: And the “Mean drug concentration (plasma)” value ([4]; 24h)?
A: 4.12 ng/mL

Q: And the AUC(0-t) at 24 h ([4]; AUC0-t (liver))?
A: 58100 ng·h/mL

Q: And the AUC(0-t) at 24 h ([4]; AUC0-t (plasma))?
A: 510 ng·h/mL

Q: What about the AST levels ([5]; all administration groups, no statistically significant differences) of the same compound?
A: exceeded the normal reference range

Q: And the ALP levels ([5]; all dose groups)?
A: within the normal reference value range

Q: What about the GGT levels ([5]; all dose groups) of the same compound?
A: significantly lower than that of the control group

Q: What about the ALB level ([5]; at 2 h and 4 h) of the same compound?
A: significantly lower than that of the control group

Q: And the “ALT elevation by clinical adverse reaction grading” value ([5]; single administration, Grade 1 AE = ALT exceeding three times the normal value)?
A: did not result in ALT elevation to grade 1 AE

Q: And the ALT ([5]; whole blood, 3/10/20 mpk i.g. single dose, 1 h, 2 h, 4 h)?
A: increased in all groups

Q: What about the IFN-α stimulating activity [6] of the same compound?
A: strong

Q: What about the “IFN-α, IFN-γ, and IL-1240 secretion” value ([6]; 4 concentrations, compared with GS-9688) of the same compound?
A: significantly stronger activity and magnitude

Q: And the half-life at 1 µM (in vitro)?
A: 35.1 min

Q: And the microsomal CLint at 1 µM (in vitro)?
A: 39.5 µL/min/mg

Q: And the solubility (physchem)?
A: 1010 µM (≈ 413 µg/mL)

Q: What about the IC50 (hERG potassium channel) of the same compound?
A: 4.3 µM and > 10 µM
